Assay [1] has as its system M. tuberculosis starvation survival, CFU enumeration. Put plainly: Mycobacterium tuberculosis starvation survival, colony forming units enumeration, confirmatory dose response (AID 651857).
Assay in assay [2]: as above
To be noted: M. tuberculosis starvation survival, CFU enumeration.

Several values for one entry are separate records, joined by “and”; a condition that tells them apart may be missing. Equal values may be shown once. Activity calls are given as the source filed them. No rule for the calls is given here. Where only a bound is given, the exact number is not on record here.

For the molecule `N#Cc1ccccc1CSc1nnc(-c2ccccc2)o1`, the IC90 (commonly the concentration needed for an effect of 90%) in assay [1] is > 62 µM (inactive). The same measure, in the same setting: then `c1ccc(Cn2cc(CSc3nnc(C4CCC4)o3)nn2)cc1`, with 8 µM. On to `[N-]=[N+]=NCCOCCNC(=O)CCCOc1ccc(CS(=O)c2nnc(-c3ccc(Cl)cc3)o2)nc1` (stereo unspecified), for which the IC90 in assay [1] was < 8 µM. Still for that read-out and setting: the value for `c1ccc(CSc2nnc(-c3ccccn3)o2)cc1` was 31 µM; that for `c1ccc(CSc2nnc(-c3cccnc3)o2)cc1` was 62 µM. On the same count and under the same terms, the value for `FC1(F)CN(CCSc2nnc(-c3ccccc3)o2)C1` was > 62 µM (inactive). With `c1ccc(-c2nnc(SCc3cscn3)o2)cc1`, in assay [1], the IC90 was 62 µM. Same read-out and setting: then `Fc1cccc(CSc2nnc(-c3ccccc3)o2)c1`, with 31 µM; and `FC(F)(F)c1ccccc1CSc1nnc(-c2ccccc2)o1`, with > 62 µM (inactive). Turning to `Cc1ccc(-c2nnc(SCc3ccccc3)o2)cc1`, in assay [1], the IC90 is > 62 µM (inactive). As for `O=S(Cc1cn(Cc2ccccc2)nn1)c1nnc(-c2ccc(Cl)cc2)o1` (stereo unspecified), the IC90 in assay [1] is < 31 µM and 8 µM. Consider `c1ccc(Cn2cc(CSc3nnc(C4CCCC4)o3)nn2)cc1`, for which the IC90 in assay [1] is 31 µM. For `c1ccc(-c2nnc(SCCN3CCN(c4ccccc4)CC3)o2)cc1`, the IC90 in assay [1] was 16 µM.

Regarding `c1ccc(CSc2nnc(-c3ccccc3)o2)cc1`, the IC90 in assay [1] was 8 µM. For the molecule `O=S(Cc1cn(Cc2ccc(F)cc2)nn1)c1nnc(-c2ccc(Cl)cc2)o1` (stereo unspecified), the IC90 in assay [1] was 2 µM.

Take `O=S(Cc1ccccc1)c1nnc(-c2ccccc2)o1` (stereo unspecified): the IC90 in assay [1] was < 8 µM and 2 µM.

Consider `Fc1cccc(-c2nnc(SCc3ccccc3)o2)c1`, for which the IC90 in assay [1] was 62 µM. The same measure, in the same setting: the value for `Fc1cccc(-c2nnc(SCc3ccccn3)o2)c1` was < 8 µM; that for `c1ccc(CSc2nnc(-c3cnco3)o2)cc1` was 16 µM. As to `c1ccc(CCc2nnc(-c3ccccc3)o2)cc1`, the IC90 in assay [1] was > 62 µM (inactive). The same measure, in the same setting: then `Clc1ccc(-c2nnc(SCc3cn(-c4ccccc4)nn3)o2)cc1`, with 2 µM. On the same count and under the same terms, the value for `FC(F)(F)Oc1ccc(CSc2nnc(-c3ccccc3)o2)cc1` was > 62 µM (inactive); that for `[N-]=[N+]=NCCOCCNC(=O)CCCOc1ccc(CSc2nnc(-c3ccc(Cl)cc3)o2)nc1` was < 8 µM. On the same count and under the same terms, then `c1ccc(-n2cc(CSc3nnc(C4CCCC4)o3)nn2)cc1`, with 4 µM; and `Fc1ccc(Cn2cc(CSc3nnc(C4CCCC4)o3)nn2)cc1`, with 8 µM; and `CC(C)c1nnc(SCc2ccccc2)o1`, with 125 µM. `Fc1ccc(-c2nnc(SCc3cn(-c4ccccc4)nn3)o2)cc1`: the IC90 in assay [1] was 2 µM. Still for that read-out and setting: then `Fc1ccc(Cn2cc(CSc3nnc(-c4ccc(Cl)cc4)o3)nn2)cc1`, with 2 µM. The same measure, in the same setting: the value for `c1ccc(COc2nnc(-c3ccccc3)o2)cc1` was > 62 µM (inactive).

As to `FC1(F)CCN(CCSc2nnc(-c3ccccc3)o2)CC1`, the IC90 in assay [1] was > 62 µM (inactive). Still for that read-out and setting: then `Fc1ccc(-c2nnc(SCc3cn(Cc4ccccc4)nn3)o2)cc1`, with 2 µM; and `c1ccc(-n2cc(CSc3nnc(C4CCC4)o3)nn2)cc1`, with 2 µM; and `Clc1ccc(-c2nnc(SCc3cn(Cc4ccccc4)nn3)o2)cc1`, with 2 µM and < 8 µM. Same read-out and setting: then `Brc1ccc(-c2nnc(SCc3ccccn3)o2)cc1`, with < 8 µM; and `COc1cccc(-c2nnc(SCc3ccccn3)o2)c1`, with < 8 µM; and `c1ccc(Cn2cc(CSc3nnc(-c4ccccc4)o3)nn2)cc1`, with 4 µM. On the same count and under the same terms, then `Fc1ccc(-c2nnc(SCc3ccccn3)o2)cc1`, with < 8 µM; and `c1ccc(CSc2nnc(-c3cccs3)o2)cc1`, with > 62 µM (inactive); and `COCCSc1nnc(-c2ccccc2)o1`, with 4 µM. In the case of `Fc1ccc(Cn2cc(CSc3nnc(C4CCC4)o3)nn2)cc1`, the IC90 in assay [1] is 8 µM. On the same count and under the same terms, the value for `c1ccc(-c2nnc(SCc3ccccn3)o2)cc1` was 4 µM; that for `Brc1cccc(-c2nnc(SCc3ccccn3)o2)c1` was < 8 µM; that for `c1ccc(-c2nnc(SC3CCCCC3)o2)cc1` was 31 µM. Same read-out and setting: the value for `COc1cccc(CSc2nnc(-c3ccccc3)o2)c1` was 16 µM.

As for `Fc1ccc(Cn2cc(CSc3nnc(-c4ccc(F)cc4)o3)nn2)cc1`, the IC90 in assay [1] is 2 µM. Still for that read-out and setting: then `c1ccc(-c2nnc(SCCC3OCCCO3)o2)cc1`, with 10 µM; and `c1ccc(CSc2nnc(C3CCCC3)o2)cc1`, with 31 µM; and `Fc1ccc(CSc2nnc(-c3ccccc3)o2)cc1`, with 62 µM.

Regarding `[O-][n+]1ccccc1CSc1nnc(-c2ccccc2)o1`, in assay [1], the IC90 is > 62 µM (inactive).

For the molecule `O=S(=O)(Cc1cn(Cc2ccccc2)nn1)c1nnc(-c2ccc(Cl)cc2)o1`, the outcome in assay [2] was inactive. As to `COc1ccc(CSc2nnc(-c3ccc(Cl)cc3)o2)nc1`, the IC90 in assay [1] is < 8 µM. Still for that read-out and setting: the value for `CN(Cc1ccccc1)c1nnc(-c2ccccc2)o1` was > 62 µM (inactive); that for `O=S(=O)(Cc1ccccc1)c1nnc(-c2ccccc2)o1` was < 62 µM and 8 µM. For `Fc1ccc(-c2nnc(SCc3ccccc3)o2)cc1`, in assay [1], the IC90 was 31 µM. The same measure, in the same setting: then `COc1ccc(CSc2nnc(-c3ccccc3)o2)cc1`, with > 62 µM (inactive); and `Clc1ccc(CSc2nnc(-c3ccccc3)o2)cc1`, with 8 µM.

For the origin of these results see PubChem BioAssay AID651857 (Broad Institute, 2012).
